Results as given in doi:10.1101/2020.01.06.895540v1 (biorxiv, 2020).

Key:
Experiment in all cases: cell-based
Parameters in all cases: species or system Hana3A
hOR8K5 = molecular target: T1, hOR8K5 (Homo sapiens, UniProt Q8NH50)
T1 sequence (Q8NH50 1-307): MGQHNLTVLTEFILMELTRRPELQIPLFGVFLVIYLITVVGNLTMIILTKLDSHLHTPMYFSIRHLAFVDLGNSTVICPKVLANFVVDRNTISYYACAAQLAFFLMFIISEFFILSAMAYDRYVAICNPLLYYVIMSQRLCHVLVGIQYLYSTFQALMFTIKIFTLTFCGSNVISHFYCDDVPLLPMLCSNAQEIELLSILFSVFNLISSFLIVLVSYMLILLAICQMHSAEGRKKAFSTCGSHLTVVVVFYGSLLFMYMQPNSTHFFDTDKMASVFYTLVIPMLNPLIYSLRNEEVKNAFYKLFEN

hOR5R1 = molecular target: T2, hOR5R1 (Homo sapiens, UniProt Q8NH85)
T2 sequence (Q8NH85 1-324): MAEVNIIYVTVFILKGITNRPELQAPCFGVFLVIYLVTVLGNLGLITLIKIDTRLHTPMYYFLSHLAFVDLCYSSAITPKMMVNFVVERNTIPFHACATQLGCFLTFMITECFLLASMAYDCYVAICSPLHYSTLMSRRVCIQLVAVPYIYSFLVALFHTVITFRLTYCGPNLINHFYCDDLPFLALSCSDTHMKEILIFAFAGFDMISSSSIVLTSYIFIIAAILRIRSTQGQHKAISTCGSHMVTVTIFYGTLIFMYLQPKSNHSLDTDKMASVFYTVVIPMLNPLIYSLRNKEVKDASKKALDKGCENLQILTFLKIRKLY

hOR11H12 = molecular target: T3, hOR11H12 (Homo sapiens, UniProt B2RN74)
T3 sequence (B2RN74 1-326): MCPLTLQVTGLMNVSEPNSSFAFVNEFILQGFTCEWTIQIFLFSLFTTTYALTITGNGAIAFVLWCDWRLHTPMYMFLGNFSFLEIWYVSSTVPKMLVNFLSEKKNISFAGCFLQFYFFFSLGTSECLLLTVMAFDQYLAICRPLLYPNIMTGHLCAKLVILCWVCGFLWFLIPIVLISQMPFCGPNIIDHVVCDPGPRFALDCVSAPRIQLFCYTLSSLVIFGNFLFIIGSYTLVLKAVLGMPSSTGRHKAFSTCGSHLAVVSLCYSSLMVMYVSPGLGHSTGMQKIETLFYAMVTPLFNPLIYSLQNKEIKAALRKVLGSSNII

hOR8B2 = molecular target: T4, hOR8B2 (Homo sapiens, UniProt Q96RD0)
T4 sequence (Q96RD0 1-313): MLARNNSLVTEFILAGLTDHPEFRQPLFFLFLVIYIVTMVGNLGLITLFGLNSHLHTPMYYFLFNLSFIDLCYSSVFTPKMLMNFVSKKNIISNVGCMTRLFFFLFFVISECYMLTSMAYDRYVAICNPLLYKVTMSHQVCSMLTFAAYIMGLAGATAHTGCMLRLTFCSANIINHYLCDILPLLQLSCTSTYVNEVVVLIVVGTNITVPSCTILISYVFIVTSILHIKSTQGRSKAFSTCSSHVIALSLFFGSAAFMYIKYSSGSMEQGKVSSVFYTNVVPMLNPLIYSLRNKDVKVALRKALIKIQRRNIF

Row | SMILES | EC50 (hOR8K5) [µM] | EC50 (hOR5R1) [µM] | EC50 (hOR11H12) [µM] | EC50 (hOR8B2) [µM]
1 | O=C1CCOc2ccccc21 [4-chromanone] | > 1000 | 218 | > 1000 | 15
2 | C=C(C)[C@@H]1CC=C(C)C(=O)C1 [R-carvone] | 4.5 | 12 | 16.3 | > 1000
3 | CC(=O)c1ccccc1 [acetophenone] | > 1000 | 3.4 | 4.7 | > 1000
4 | O=c1ccc2ccccc2o1 [coumarin] | > 1000 | 10.2 | 91.9 | > 1000
